Laboratory results reported in paper PMC7447632, “Highly functionalized β-lactams and 2-ketopiperazines as TRPM8 antagonists with antiallodynic activity” (Scientific Reports, 2020).
Values belong to the compound of their own block, whether it stands above or below them.

Legend:
TRPM8 = settings: cited from earlier work; for IC50: Figure 1, literature values; for EC50: Figure 1, literature value
rat TRPM8 channel = biological target: T1, rat TRPM8 channel (Rattus norvegicus, UniProt Q8R455); test: Ca2+ microfluorometry, menthol-induced Ca2+ influx in HEK293 cells expressing rat TRPM8; format: cell-based; settings: 100 µM menthol, HEK-rTRPM8; for % Blockade 5 µM: 5 µM compound; for % Blockade 50 µM: 50 µM compound; for IC50: Ca2+ microfluorometry
T1 construct: expressed in transfected cells; host or cells: HEK293 (stably transfected)
T1 sequence (Q8R455 whole entry): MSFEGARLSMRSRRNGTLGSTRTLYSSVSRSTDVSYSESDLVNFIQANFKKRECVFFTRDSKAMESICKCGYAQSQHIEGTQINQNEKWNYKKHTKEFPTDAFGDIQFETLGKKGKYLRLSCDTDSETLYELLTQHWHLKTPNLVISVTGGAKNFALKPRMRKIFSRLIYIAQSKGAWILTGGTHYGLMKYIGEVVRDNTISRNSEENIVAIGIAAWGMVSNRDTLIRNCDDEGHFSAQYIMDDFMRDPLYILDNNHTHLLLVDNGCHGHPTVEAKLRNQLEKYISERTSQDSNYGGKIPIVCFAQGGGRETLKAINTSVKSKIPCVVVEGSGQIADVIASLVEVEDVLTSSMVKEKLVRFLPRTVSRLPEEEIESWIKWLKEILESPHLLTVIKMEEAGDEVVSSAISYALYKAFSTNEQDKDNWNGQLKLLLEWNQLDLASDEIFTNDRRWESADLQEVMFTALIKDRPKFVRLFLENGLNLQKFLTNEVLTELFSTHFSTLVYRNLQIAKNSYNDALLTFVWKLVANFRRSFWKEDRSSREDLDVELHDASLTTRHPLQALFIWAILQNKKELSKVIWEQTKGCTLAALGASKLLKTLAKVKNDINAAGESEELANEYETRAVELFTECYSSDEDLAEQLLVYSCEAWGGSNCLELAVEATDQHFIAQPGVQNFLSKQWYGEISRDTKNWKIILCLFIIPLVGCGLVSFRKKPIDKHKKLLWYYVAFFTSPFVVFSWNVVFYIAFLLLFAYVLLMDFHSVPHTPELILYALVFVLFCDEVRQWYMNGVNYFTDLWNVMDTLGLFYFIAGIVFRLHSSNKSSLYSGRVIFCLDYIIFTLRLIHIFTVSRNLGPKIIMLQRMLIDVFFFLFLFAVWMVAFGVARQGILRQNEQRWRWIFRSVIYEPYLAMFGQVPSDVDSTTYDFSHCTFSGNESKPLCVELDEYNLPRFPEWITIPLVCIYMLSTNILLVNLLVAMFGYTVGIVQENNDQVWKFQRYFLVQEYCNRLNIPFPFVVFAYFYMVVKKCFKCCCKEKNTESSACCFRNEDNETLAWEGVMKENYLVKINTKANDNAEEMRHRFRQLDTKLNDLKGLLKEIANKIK
Method: The ability to inhibit menthol-induced Ca^2+ intracellular influx into the cytosol on HEK293 cells heterologously expressing the rat TRPM8 channel was measured and compared to that of AMTB, a well-known TRPM8 antagonist. Representative recordings of fluorescence obtained in microfluorometry experiments for selected compounds are in Supplementary Fig. S3.
(§1) Human embryonic kidney cell line (HEK) stably transfected with rTRPM8 or h-TRPV1 were used as previously described. Briefly, cells were seeded in 96-well plates at a cell density of 30,000 cells 2 days before treatment. Buffer used was HBBS (in mM): 138 NaCl, 5.33 KCl, 1.26 CaCl2, 0.5 MgCl-6H2O, 0.4 MgSO4-7H2O, 4 NaHCO3 0.44 KH2PO4, 0.3 Na2HPO4, pH 7.4. The day of treatment the medium was replaced with 100 µL of the dye loading solution Fluo-4 NW supplemented with probenecid 2.5 mM. After incubation, plates were transferred to a fluorescence plate reader (Polastar BMG). In the experimental protocol, the baseline fluorescence was recorded ([…]) for 3 cycles. After, vehicle, compound at different concentrations and the corresponding antagonist, 10 µM AMTB for TRPM8 or 10 µM Ruthenium Red for TRPV1 were added to the well. Fluorescence intensity was recorded during 7 cycles more. Finally, the agonist 100 µM menthol for TRPM8 or 1 µM capsaicin for TRPV1 was added and fluorescence intensity was recorded during 10 cycles more.
The degree of inhibition of TRPM8 channel gating was calculated by comparison to calcium increase signal elicited by test substances and menthol at 100 µM. Decrease of menthol signal was expressed as percentage of inhibition (%). All data are expressed as mean ± standard deviation (SD). Each condition was assessed by triplicate (n = 3) in 3 independent experiments (N = 3). Z-factor was calculated in each assay using the following equation: […]. In all the experiments Z-factor was ≥ 0.5. To calculate IC50, normalized responses (%) versus log [µM] were adjusted to a non-linear fit with variable slope, a four-parameter dose–response curve following curve Y = 100/(1 + 10^((Log IC50-X)*HillSlope)) where […].

hTRPV1 channels = biological target: T2, hTRPV1 channels (Homo sapiens, UniProt Q8NER1); test: Ca2+ microfluorometry in HEK cells expressing hTRPV1 (capsaicin); format: cell-based; settings: 1 µM capsaicin; for TRPV1 Blockade (%) 5 µM: 5 µM compound; for TRPV1 Blockade (%) 50 µM: 50 µM compound
T2 construct: expressed in transfected cells; host or cells: HEK (stably transfected)
T2 sequence (Q8NER1 whole entry): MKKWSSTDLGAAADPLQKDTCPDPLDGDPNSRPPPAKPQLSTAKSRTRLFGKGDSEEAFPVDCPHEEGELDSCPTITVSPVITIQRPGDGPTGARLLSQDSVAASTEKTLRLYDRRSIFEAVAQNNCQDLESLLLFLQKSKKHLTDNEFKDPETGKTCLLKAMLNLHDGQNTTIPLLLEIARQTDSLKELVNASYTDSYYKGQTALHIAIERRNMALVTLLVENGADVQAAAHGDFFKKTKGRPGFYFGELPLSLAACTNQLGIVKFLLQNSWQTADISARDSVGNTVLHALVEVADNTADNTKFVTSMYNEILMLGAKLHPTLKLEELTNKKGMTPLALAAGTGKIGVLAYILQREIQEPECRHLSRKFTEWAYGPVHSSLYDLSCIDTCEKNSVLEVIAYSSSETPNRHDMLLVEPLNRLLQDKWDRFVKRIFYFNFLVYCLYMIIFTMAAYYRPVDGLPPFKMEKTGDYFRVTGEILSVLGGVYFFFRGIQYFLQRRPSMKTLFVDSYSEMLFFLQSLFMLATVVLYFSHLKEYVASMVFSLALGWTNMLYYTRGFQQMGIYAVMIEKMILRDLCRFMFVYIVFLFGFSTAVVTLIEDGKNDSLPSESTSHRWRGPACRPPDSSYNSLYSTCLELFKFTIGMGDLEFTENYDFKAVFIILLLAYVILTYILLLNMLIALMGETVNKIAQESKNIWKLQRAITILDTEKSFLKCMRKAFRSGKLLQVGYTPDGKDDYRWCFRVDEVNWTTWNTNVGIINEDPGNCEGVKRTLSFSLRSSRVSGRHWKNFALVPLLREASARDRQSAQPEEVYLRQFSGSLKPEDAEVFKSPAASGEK
Method: β-Lactam and 2-ketopiperazine derivatives were also assayed for their activity in cell expressing hTRPV1 channels. No significant antagonist activity was measured for any derivatives within both chemotypes (Supplementary Tables S1, S2, and Fig. S3), indicating their selectivity for TRPM8 channels.
as §1
Table S1. Activity at hTRPV1 of β–lactams derived from phenylalaninol conjugates
Compd. Isomer Isomer TRPV1 Blockade (%)
Table S2. Activity at hTRPV1 of 2-ketopiperazines derived from phenylalaninol

[1] = system: A549 (lung carcinoma, NSCLC); test: SRB cytotoxicity assay, A549; format: cell-based; settings: 72 h, SRB; for TGI A549: total growth inhibition; for TGI A549 / CC50: unit inferred; for GI50 / CC50: Homo sapiens, A549; for CC50: read-out: LC50 A549
Method: (§2) Human tumor cell lines used in this study were purchased from the ATCC. A-549 (CCL-185), lung carcinoma; HT-29 (HTB-38), colorectal adenocarcinoma; MDA-MB-231 (HTB-26), breast adenocarcinoma; PSN1, pancreas adenocarcinoma.
(§3) All cell lines were maintained in DMEM (Dulbecco’s Modified Eagle's Medium) culture medium supplemented with 10% FBS (Fetal Bovine Serum), 100 Units/mL penicillin/streptomycin at 37 °C, 5% CO2 and 95% humidity.
(§4) Triplicate cultures were incubated for 72 h in the presence or absence of test compounds in dose–response curves (10 concentrations, typically ranging from 10 to 0.0026 µg/mL). A colorimetric assay using sulforhodamine B (SRB) was adapted for quantitative measurement of cell growth and cytotoxicity. A more detailed information on this assay is provides in the supplementary information. GI50 is the compound concentration that produces 50% inhibition on cell growth as compared to control cells.
(§5) In vitro bioassays for the detection of antitumor activity
(§6) The aim of this assay is to evaluate the in vitro cytostatic (ability to delay or arrest tumor cell growth) or cytotoxic (ability to kill tumor cells) activity of the samples […]
(§7) Name Nº ATCC Species Tissue Characteristics
(§8) A549 CCL-185 human lung lung carcinoma (NSCLC)
(§9) HT29 HTB-38 human colon colorectal adenocarcinoma
(§10) MDA-MB-231 HTB-26 human breast breast adenocarcinoma
(§11) PSN1 CRM-CRL-3211 human pancreas pancreas adenocarcinoma […]
(§12) A colorimetric assay, using Sulforhodamine B (SRB) reaction has been adapted to provide a quantitative measurement of cell growth and viability (following the technique described by Skehan et al. J. Natl. Cancer Inst. 1990, 82, 1107-1112 […]
(§13) This form of assay employs 96-well cell culture microplates following the standards of the American National Standards Institute and the Society for Laboratory […]
(§14) used in this study were obtained from the American Type Culture Collection (ATCC) and derive from different types of human cancer.
(§15) A549, HT29, MDA-MB-231 and PSN1 cells were maintained in Dulbecco’s
(§16) Modified Eagle Medium (DMEM) supplemented with 10% Fetal Bovine Serum (FBS), 2mM L-glutamine, 100 U/mL penicillin, and 100 U/mL streptomycin at 37 °C, 5% CO2 and 98% humidity. For the experiments, cells were harvested from subconfluent cultures using trypsinization and resuspended in fresh medium before counting and […]
(§17) A549, HT29, MDA-MB-231 and PSN1 cells were seeded in 96 well microtiter plates, at 5000 cells per well in aliquots of 150 µL, and allowed to attach to the plate surface for 18 hours (overnight) in drug free medium. After that, one control (untreated) plate of each cell line was fixed (as described below) and used for time zero reference value. Culture plates were then treated with test compounds (50 µL aliquots of 4X stock […]
(§18) solutions in complete culture medium plus 4% DMSO) using ten 2/5 serial dilutions (concentrations ranging from 10 to 0.003 µg/mL) and triplicate cultures (1% final concentration in DMSO). After 72 hours treatment, the antitumor effect was measured by using the SRB methodology: Briefly, cells were washed twice with PBS, fixed for 15 min in 1% glutaraldehyde solution at room temperature, rinsed twice in PBS, and stained in 0.4% SRB solution for 30 min at room temperature. Cells were then rinsed several times with 1% acetic acid solution and air-dried at room temperature. SRB was then extracted in 10 mM trizma base solution and the absorbance measured in an automated spectrophotometric plate reader at 490 nm.
(§19) Effects on cell growth and survival were estimated by applying the NCI algorithm (Boyd MR and Paull KD. Drug Dev. Res. 1995, 34, 91-109, DOI:10.1002/ddr.430340203). The values obtained in triplicate cultures were fitted by nonlinear regression to a four-parameters logistic curve by nonlinear regression analysis. . Using the absorbance measurements [time zero, (Tz), control growth, (C), and test growth in the presence of drug at the ten concentration levels (Ti)], the […]

[2] = system: HT29 (colorectal adenocarcinoma); test: SRB cytotoxicity assay, HT29; format: cell-based; settings: 72 h, SRB; for TGI HT29: total growth inhibition; for TGI HT29 / CC50: unit inferred; for GI50 / CC50: Homo sapiens, HT-29; for CC50: read-out: LC50 HT29
Method: as §2, §3, §4, §5, §6, §7, §8, §9, §10, §11, §12, §13, §14, §15, §16, §17, §18, §19

[3] = system: MDA-MB-231 (breast adenocarcinoma); test: SRB cytotoxicity assay, MDA-MB-231; format: cell-based; settings: 72 h, SRB; for TGI MDA-MB-231: total growth inhibition; for TGI MDA-MB-231 / CC50: unit inferred; for GI50 / CC50: Homo sapiens, MDA-MB-231; for CC50: read-out: LC50 MDA-MB-231
Method: as §2, §3, §4, §5, §6, §7, §8, §9, §10, §11, §12, §13, §14, §15, §16, §17, §18, §19

[4] = system: PSN1 (pancreas adenocarcinoma); test: SRB cytotoxicity assay, PSN1; format: cell-based; settings: 72 h, SRB; for TGI PSN1: total growth inhibition; for TGI PSN1 / CC50: unit inferred; for GI50 / CC50: Homo sapiens, PSN1; for CC50: read-out: LC50 PSN1
Method: as §2, §3, §4, §5, §6, §7, §8, §9, §10, §11, §12, §13, §14, §15, §16, §17, §18, §19

Structure (SMILES): Cc1cccc(COc2ccccc2C(=O)N(CCCN)Cc2cccs2)c1 [AMTB]
IC50 (TRPM8): 0.16 µM

Structure (SMILES): COC(=O)[C@H](Cc1c[nH]c2ccccc12)N(Cc1ccccc1)Cc1ccccc1 [Bn2-Trp-OMe]
IC50 (TRPM8): 0.0002 µM

% Blockade 5 µM (rat TRPM8 channel): 101.4 ± 6.1%
% Blockade 50 µM (rat TRPM8 channel): 106 ± 5.06%
IC50 (rat TRPM8 channel): 1.8 ± 1.9 µM
TRPV1 Blockade (%) 5 µM (hTRPV1 channels): 6.3±2.1%
TRPV1 Blockade (%) 50 µM (hTRPV1 channels): 7.8±4.1%
Structure (SMILES): O=C(OCc1ccccc1)C(Cc1ccccc1)N1C[C@@H](Cc2ccccc2)N(C(=O)OCc2ccccc2)CC1=O (some centres unmarked) [Compound 15ab]
TGI A549 [1]: > 17.8 µM
GI50 [1]: > 17.8 µM
CC50 [1]: > 17.8 µM
TGI HT29 [2]: > 17.8 µM
GI50 [2]: > 17.8 µM
CC50 [2]: > 17.8 µM
TGI MDA-MB-231 [3]: > 17.8 µM
GI50 [3]: > 17.8 µM
CC50 [3]: > 17.8 µM
TGI PSN1 [4]: > 17.8 µM
GI50 [4]: 6.4 µM
CC50 [4]: > 17.8 µM

% Blockade 5 µM (rat TRPM8 channel): 101.7 ± 5.3%
% Blockade 50 µM (rat TRPM8 channel): 101.2 ± 11.4%
IC50 (rat TRPM8 channel): 0.16 µM
TRPV1 Blockade (%) 5 µM (hTRPV1 channels): 9.2±2.1%
TRPV1 Blockade (%) 50 µM (hTRPV1 channels): 13.9±4.8%
Structure (SMILES): C[C@@H]1C(=O)N(C(Cc2ccccc2)C(=O)OCc2ccccc2)C[C@@H](Cc2ccccc2)N1C(=O)OCc1ccccc1 (some centres unmarked) [Compound 30ab]
TGI A549 [1]: > 17.3 µM
GI50 [1]: 12.7 µM
CC50 [1]: > 17.3 µM
TGI HT29 [2]: > 17.3 µM
GI50 [2]: > 17.3 µM
CC50 [2]: > 17.3 µM
TGI MDA-MB-231 [3]: > 17.3 µM
GI50 [3]: > 17.3 µM
CC50 [3]: > 17.3 µM
TGI PSN1 [4]: > 17.3 µM
GI50 [4]: 8.3 µM
CC50 [4]: > 17.3 µM

Structure (SMILES): O=C1NC(c2cccc([N+](=O)[O-])c2)=CCN1c1ccccc1O [Icilin]
EC50 (TRPM8): 0.005 µM

Structure (SMILES): C[C@H](c1cc(F)cc(F)c1)N(C(=O)c1ccccc1)[C@@H](C(N)=O)c1ccccc1 [KPR-2579]
IC50 (TRPM8): 0.008 µM

Structure (SMILES): CC1CCC(C(C)C)C(O)C1 (centres unmarked) [Menthol]
EC50 (TRPM8): 200 to 500 µM

Structure (SMILES): C[C@H](c1ccc(F)cc1)N(Cc1cccc(C(=O)O)c1)C(=O)c1cnc2ccccc2c1 [PF-05105679]
IC50 (TRPM8): 0.181 µM

Structure (SMILES): O=C(O)c1ccc(S(=O)(=O)N(Cc2ccc(OC(F)(F)F)cc2)c2ncc(C(F)(F)F)cc2Cl)cc1 [RQ 00203078]
IC50 (TRPM8): 0.0083 µM
